Assay results: EP0231622B1, “Inhibition of the 5-lipoxygenase pathway” (priority 1985, dated 1987)
Like-named read-outs stand apart in the source and are kept apart here.

Experiments:
[1] = tested on: Arachidonic Acid-Induced Rat Paw Edema; experiment: Arachidonic acid-induced rat paw swelling; format: in vivo, Lewis rats; conditions: 100 mg/kg, read at 2 hours
Source text: In the following Examples where mice were used, they were male Balb/c mice (20-28 g), and where rats were used, they were male Lewis rats (180-210 g). All mice and rats were obtained from Charles River Breeding Laboratories, Kingston, N.Y. Within a single experiment, mice and rats were sex and age matched.
The compounds of Formula (IA) were used either as the free base or in the appropriate salt form. Levamisole was used as the hydrochloride salt. The compounds were homogenized in 0.5% tragacanth. Compounds were administered by gavage at the indicated dose in a final volume of 10 ml/kg. Nordihydroguaiaretic acid (NDGA) was solubilized in dimethylacetamide and diluted with olive oil for subcutaneous administration.

5-Lipoxygenase [2] = biological target: T1, 5-Lipoxygenase (Rattus norvegicus, UniProt P12527); experiment: 5-Lipoxygenase activity (5-HETE) in 10,000 x g supernatant of RBL-1 cells; format: biochemical; conditions: text b252; RBL-1 cell extracts; read-out: IC₅₀ 5-HETE synthesis
T1 construct: The activities of these enzymes in extracts of RBL-1 cells were assayed; host or cells: RBL-1 cells, disrupted by nitrogen cavitation; 10,000 x g or 100,000 x g supernatant
T1 sequence (P12527 1-673): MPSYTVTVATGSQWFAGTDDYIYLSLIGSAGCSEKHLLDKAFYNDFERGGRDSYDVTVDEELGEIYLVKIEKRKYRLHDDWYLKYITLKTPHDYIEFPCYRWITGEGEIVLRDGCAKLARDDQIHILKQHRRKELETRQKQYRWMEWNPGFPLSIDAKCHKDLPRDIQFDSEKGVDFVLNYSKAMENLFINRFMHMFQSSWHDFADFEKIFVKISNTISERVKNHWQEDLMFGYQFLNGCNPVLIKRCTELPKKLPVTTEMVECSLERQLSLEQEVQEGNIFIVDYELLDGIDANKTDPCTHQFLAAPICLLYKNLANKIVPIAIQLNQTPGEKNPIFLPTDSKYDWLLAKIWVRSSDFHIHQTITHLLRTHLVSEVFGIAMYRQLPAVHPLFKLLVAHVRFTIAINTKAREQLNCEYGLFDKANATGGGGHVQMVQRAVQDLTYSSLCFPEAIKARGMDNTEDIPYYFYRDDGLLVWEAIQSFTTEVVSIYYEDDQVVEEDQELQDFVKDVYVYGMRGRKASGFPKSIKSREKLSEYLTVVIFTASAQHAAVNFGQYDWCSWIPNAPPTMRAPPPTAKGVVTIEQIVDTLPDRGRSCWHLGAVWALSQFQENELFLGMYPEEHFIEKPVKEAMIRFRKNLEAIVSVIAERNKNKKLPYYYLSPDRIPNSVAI
Protocol: Harvested cells were washed with 50 mM sodium phosphate buffer, pH 7.0, containing 1 mM EDTA and 0.1% gelatin, resuspended in fresh buffer (5 x 10⁷ cells/ml) and disrupted by nitrogen cavitation using the Parr bomb at 750 psi for 10 min. The broken cell extract was then centrifuged at 10,000 x g for 20 minutes and the supernatant centrifuged at 100,000 x g for 60 minutes. Aliquots (0.25 mls) of the supernatant were preincubated with or without drugs for 10 min, after which 10 ul CaCl₂ (50 mM) was added and the reaction was initiated with 2.5 ul of 2.5 mM arachidonic acid-1-¹⁴C (final concentration was 25 mM; specific activity 20,000 dpm/nmole). After incubation for 3 min at 37°C, the reaction was terminated by addition of 2 volumes (0.5 ml) ice cold acetone and the sample was allowed to deproteinize on ice for 10 min prior to centrifugation at 1,000 x g for 10 min. The deproteinized supernatant was adjusted to pH 3.5 with 2N formic acid and extracted with 2 volumes of ice cold ethyl acetate. […] Arachidonic acid, 5-HETE, di-HETE and PGD₂ were quantified with a Berthold LB 2832 autoscanner.

5-Lipoxygenase [3] = biological target: T1, 5-Lipoxygenase; experiment: 5-HETE production by RBL-1 high speed supernatant; format: biochemical
Protocol: (§1) For in vitro experiments, compounds were dissolved at appropriate concentrations in ethanol or DMSO (dimethylsulfoxide) (final concentration <1.0%) and then diluted to final concentrations using the buffers indicated in the text.
The activities of these enzymes in extracts of RBL-1 cells were assayed using the method of Jakschik and Lee, Nature, 287, 51-52 (1980). RBL-1 cells were obtained from the American Type Culture Collection (#CRL 1378) and were grown at 37°C (5% CO₂ in air) in spinner culture in MEM supplemented with 10% heat inactivated fetal calf serum. Harvested cells were washed with 50 mM sodium phosphate buffer, pH 7.0, containing 1 mM EDTA and 0.1% gelatin, resuspended in fresh buffer (5 x 10⁷ cells/ml) and disrupted by nitrogen cavitation using the Parr bomb at 750 psi for 10 min. The broken cell extract was then centrifuged at 10,000 x g for 20 minutes and the supernatant centrifuged at 100,000 x g for 60 minutes. Aliquots (0.25 mls) of the supernatant were preincubated with or without drugs for 10 min, after which 10 ul CaCl₂ (50 mM) was added and the reaction was initiated with 2.5 ul of 2.5 mM arachidonic acid-1-¹⁴C (final concentration was […]; specific activity 20,000 dpm/nmole). After incubation for 3 min at 37°C, the reaction was terminated by addition of 2 volumes (0.5 ml) ice cold acetone and the sample was allowed to deproteinize on ice for 10 min prior to centrifugation at 1,000 x g for 10 min. The deproteinized supernatant was adjusted to pH 3.5 with 2N formic acid and extracted with 2 volumes of ice cold ethyl acetate. The extracted samples were dried under argon, redissolved in ethyl acetate and applied to Whatman LK5D thin layer chromatography (TLC) plates which were developed using the A-9 solvent system [organic phase of ethyl acetate: 2,2,5-trimethylpentane:acetic acid: water (110:50:20:10)] described by Hamberg and Samuelsson, J. Biol. Chem., 241, 257-263 (1966). Arachidonic acid, 5-HETE, di-HETE and PGD₂ were quantified with a Berthold LB 2832 autoscanner.
The 5-lipoxygenase and LTA₄ synthetase activities were further studied under the following conditions. An additional centrifugation of the RBL-1 supernatant was run at 100,000 x g for 60 min, to remove the particulate cyclooxygenase activity. Sample incubation was done under conditions similar to those described above, i.e., 2 mM CaCl₂ and 25 uM arachidonic acid-1-¹⁴C, however, with an incubation time of 5 min at […]. Under these conditions, only the 5-lipoxygenase pathway metabolites were detectable. The 5-HETE and di-HETEs were formed at a linear rate, and […] amounts of the arachidonic acid-1-¹⁴C substrate were utilized.

5-LO = biological target: T2, 5-LO (Rattus norvegicus, UniProt P12527); experiment: di-HETE production by RBL-1 high speed supernatant; format: biochemical
T2 construct: The activities of these enzymes in extracts of RBL-1 cells were assayed; host or cells: RBL-1 cells, disrupted by nitrogen cavitation; 10,000 x g or 100,000 x g supernatant
T2 sequence (P12527 1-673): T1 sequence (P12527 1-673)
Procedure, shortened: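 RBL-1 cell 100,000 x g supernatant was preincubated 10 min with compound, then given CaCl₂ and 25 uM [¹⁴C]arachidonic acid for 3 min at 37°C. 5-HETE and di-HETE were quantified by TLC radioscanning. A variant re-centrifuged the supernatant and incubated 5 min at 5°C with 2 mM CaCl₂.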

[4] = tested on: Production of PGE₂ by Mouse Peritoneal Exudate Cells; experiment: PGE2 production by peritoneal macrophages; format: cell-based
Protocol: as §1
Mice were injected intraperitoneally with 350 »g Corynebacterium parvum and the peritoneal exudate cell population was harvested 12-14 days later by peritoneal lavage with cold phosphate-buffered saline, and resuspended in Eagles minimal essential medium supplemented with 5% fetal calf serum. […] Test compounds were added (100 ul) to bring the final volume to 1.0 ml. Lipopolysaccharide (5 »g/ml) was then added to stimulate PGE₂ synthesis. After incubation at 37°C for 2 hours, cell-free supernatants were harvested, placed in polypropylene tubes and frozen at -20°C until assayed for their PGE₂ content using a commercial radioimmunoassay kit. IC₅₀ is the concentration that inhibits 50% of control activity.

## Fc1ccc(-c2nc3n(c2-c2ccncc2)CCS3)cc1 [Compound 1, 5-(4-pyridyl)-6-(4-fluorophenyl)-2,3-dihydroimidazo[2,1-b]thiazole]
[1]; one hour before arachidonic acid
  Change in Paw Volume: 0.06 ± 0.05 mL
[1]
  (% Inhibition) of change in paw volume: 78%
5-Lipoxygenase [2]
  IC50: 75 µM
5-Lipoxygenase [3]; 1 uM
  5-HETE (nM/ml): 8.86 ± 0.31 nM/ml
5-Lipoxygenase [3]; 1 uM, read-out: % Control (5-HETE)
  inhibition at 1 µM: 12.7%
5-Lipoxygenase [3]; 3.3 uM
  5-HETE (nM/ml): 7.63 ± 0.44 nM/ml
5-Lipoxygenase [3]; 3.3 uM, read-out: % Control (5-HETE)
  inhibition at 3.3 µM: 24.9%
5-Lipoxygenase [3]; 10 uM
  5-HETE (nM/ml): 5.57 ± 0.35 nM/ml
5-Lipoxygenase [3]; 10 uM, read-out: % Control (5-HETE)
  inhibition at 10 µM: 45.1%
5-Lipoxygenase [3]; 33 uM
  5-HETE (nM/ml): 3.36 ± 0.07 nM/ml
5-Lipoxygenase [3]; 33 uM, read-out: % Control (5-HETE)
  inhibition at 33 µM: 67.9%
5-Lipoxygenase [3]; 100 uM
  5-HETE (nM/ml): 1.08 ± 0.13 nM/ml
5-Lipoxygenase [3]; 100 uM, read-out: % Control (5-HETE)
  inhibition at 100 µM: 89.4%
5-LO; 1 uM
  Di-HETE (nM/ml): 1.56 ± 0.06 nM/ml
5-LO; 1 uM, read-out: % Control (Di-HETE)
  inhibition at 1 µM: 19.7%
5-LO; 3.3 uM
  Di-HETE (nM/ml): 1.34 ± 0.12 nM/ml
5-LO; 3.3 uM, read-out: % Control (Di-HETE)
  inhibition at 3.3 µM: 30.9%
5-LO; 10 uM
  Di-HETE (nM/ml): 0.88 ± 0.21 nM/ml
5-LO; 10 uM, read-out: % Control (Di-HETE)
  inhibition at 10 µM: 54.8%
5-LO; 33 uM
  Di-HETE (nM/ml): 0.40 ± 0.08 nM/ml
5-LO; 33 uM, read-out: % Control (Di-HETE)
  inhibition at 33 µM: 79.6%
5-LO; 100 uM
  Di-HETE (nM/ml): 0.03 ± 0.04 nM/ml
5-LO; 100 uM, read-out: % Control (Di-HETE)
  inhibition at 100 µM: 98.3%
5-LO; soluble extract of RBL-1 cells containing only lipoxygenase activity, read-out: IC₅₀ eicosanoid formation (di-HETE production)
  IC50: 7.5 µM
[4]; Macrophage, read-out: IC₅₀ production of PGE₂ by inflammatory macrophages
  IC50: 0.7 µM
[4]; Peritoneal macrophage, Table 10, LPS-stimulated, C. parvum-elicited peritoneal exudate cells, read-out: IC₅₀ (»M) production of PGE₂
  IC50: 0.7 µM
